Data reported in publication PMC3070799 (Neuropharmacology, 2011).
Read-outs that look alike come from different tables or passages of the source.

Experiments:
human 5-HT3A receptors = biological target: T1, human 5-HT3A receptors (Homo sapiens, UniProt P46098); assay: Two-electrode voltage clamp of 5-HT-induced currents in Xenopus oocytes, incl. co-application; assay type: cell-based
T1 construct: expressed in transfected cells; host or cells: Xenopus laevis oocytes (cRNA from pGEMHE)
T1 sequence (P46098 24-478): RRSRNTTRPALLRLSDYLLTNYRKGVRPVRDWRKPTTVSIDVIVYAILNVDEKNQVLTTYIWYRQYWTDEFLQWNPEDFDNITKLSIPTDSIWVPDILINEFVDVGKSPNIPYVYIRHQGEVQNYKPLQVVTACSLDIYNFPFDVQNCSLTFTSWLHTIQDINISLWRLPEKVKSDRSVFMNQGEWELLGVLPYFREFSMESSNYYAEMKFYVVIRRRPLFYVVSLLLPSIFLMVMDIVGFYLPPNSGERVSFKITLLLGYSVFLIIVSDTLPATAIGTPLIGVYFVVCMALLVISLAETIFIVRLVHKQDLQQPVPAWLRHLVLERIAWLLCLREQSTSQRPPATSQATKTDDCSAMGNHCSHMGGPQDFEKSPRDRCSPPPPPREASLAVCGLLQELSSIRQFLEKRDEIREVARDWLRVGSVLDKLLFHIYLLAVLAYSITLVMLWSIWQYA
Description: (§1) Stage V and VI oocytes were injected with 50 nl of ∼300 ng μl^−1 cRNA, and currents were recorded 1–4 days post-injection. A ratio of 1:3 (A:B) was used for the expression of heteromeric 5-HT3 receptors.
(§2) Xenopus laevis oocyte positive females were purchased from NASCO (Fort Atkinson, Wisconsin, USA) and maintained according to standard methods.
(§3) Currents were filtered at a frequency of 1 kHz. Micro-electrodes were fabricated from borosilicate glass (GC120TF-10, Harvard Apparatus, Edenbridge, Kent, UK) using a two stage horizontal pull (P-87, Sutter Instrument Company, California, USA) and filled with 3 M KCl. […] Oocytes were perfused with saline at a rate of 15 ml min^−1. Drug application was via a simple gravity fed system calibrated to run at the same rate. Extracellular saline contained (mM), 96 NaCl, 2 KCl, 1 MgCl2 and 5 mM HEPES; adjusted to pH 7.4 with NaOH.
(§4) Analysis and curve fitting was performed using Prism V3.02 (GraphPad Software, San Diego, California, USA, www.graphpad.com). Concentration-response data for each oocyte was normalised to the maximum current for that oocyte. For inhibition curves, antagonists were routinely co-applied in the presence of agonist. For PXN, oocytes were also pre-treated with the compound for 20 s. A 2 min wash was used between drug applications. The mean and S.E.M. for a series of oocytes was plotted against agonist or antagonist concentration and iteratively fitted (GraphPad Prism v3.02) to the following Hill equation:(1) IA=Imin+Imax−Imin/1+10^nH(logA50−logA) where A is the concentration of ligand present; IA is the current in the presence of ligand concentration A; Imin is the current when A = 0; Imax is the current when A = ∞ , A50 is the concentration of A which evokes a current equal to (Imax + Imin)/2; and nH is the Hill coefficient. Results are presented as mean ± S.E.M.. Statistical analysis was performed using ANOVA in conjunction with a Dunnett’s post-hoc test.
97) • Scenario 1: Where compounds share a binding site it was assumed that the extent of binding would be determined by a competitive interaction between the compounds such that the proportion of binding sites occupied (Pocc) in the presence of two competing compounds is given by the following expression: (2) Pocc=AKA+BKB/1+AKA+BKB where A and B are the concentrations of two ligands and KA and KB are their affinity constants respectively.
In each individual experiment, for each combination of inhibitors, data values were obtained for IA, IB and IAB. From IA and IB predicted values of IAB1 and IAB2 were also derived. A two-way ANOVA was performed on values of IAB, IAB1 and IAB2 in which the distinction between IAB, IAB1 and IAB2 was treated as a fixed factor and the variation in levels of inhibition between experiments was treated as a random factor. Where the ANOVA indicated a significant difference (P < 0.05) between IAB, IAB1 and IAB2 a post-hoc analysis was carried out using the Waller–Duncan method to identify homogenous subsets with a significance level of 0.05 and a Type I /Type II error ratio if 100.
Our models were based on the following assumptions: 1. that the channel blocking compounds only effect the response that is seen when the channel is open. […] In the case of condition 5 it is possible that the binding of one compound may prevent access of another to its own site. However, in practice this will not influence the analysis since the functional consequence of the binding of both compounds compared to one will be the same, namely complete channel blockade.

human 5-HT3AB receptors = biological target: T2, human 5-HT3AB receptors (Homo sapiens, UniProt O95264+P46098); assay: Two-electrode voltage clamp of 5-HT-induced currents in Xenopus oocytes; assay type: cell-based
T2 construct: expressed in transfected cells; host or cells: Xenopus laevis oocytes (cRNA from pGEMHE)
T2 sequence (P46098 24-478): T1 sequence (P46098 24-478)
T2 sequence (O95264 22-441): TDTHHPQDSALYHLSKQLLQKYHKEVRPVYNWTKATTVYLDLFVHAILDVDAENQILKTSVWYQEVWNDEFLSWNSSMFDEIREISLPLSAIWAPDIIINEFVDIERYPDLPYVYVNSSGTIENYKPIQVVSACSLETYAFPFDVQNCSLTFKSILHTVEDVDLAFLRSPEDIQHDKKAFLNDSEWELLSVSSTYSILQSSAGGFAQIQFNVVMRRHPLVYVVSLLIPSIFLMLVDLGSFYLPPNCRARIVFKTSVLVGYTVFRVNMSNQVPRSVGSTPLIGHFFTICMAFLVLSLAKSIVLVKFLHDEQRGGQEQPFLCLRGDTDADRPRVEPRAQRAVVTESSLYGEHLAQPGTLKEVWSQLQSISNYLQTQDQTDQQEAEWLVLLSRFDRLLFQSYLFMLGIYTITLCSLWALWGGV
Description: as §1, §2, §3, §4

glycine α1 receptors = biological target: glycine α1 receptors; design: method as in Yang et al., 2007; settings: ref Yang et al., 2007; cited from earlier work
glycine α1β receptors = biological target: glycine α1β receptors; design: method as in Yang et al., 2007; settings: ref Yang et al., 2007; cited from earlier work
[1] = abstract, 5-HT-induced responses, Xenopus oocytes, read-out: IC50
[2] = read-out: inhibition at the highest concentration used

With C[C@@H]1C(=O)O[C@H]2C[C@@]34[C@H]5C[C@@H](C(C)(C)C)[C@]36[C@@H](OC(=O)[C@@H]6O)O[C@@]4(C(=O)O5)[C@]21O [GA, ginkgolide A] the “inhibition (in words)” value (human 5-HT3A receptors; 1 mM, seen in the 5-HT3A receptor only) was “minimal inhibition”, the IC50 (human 5-HT3A receptors; [1]) was greater than 1000 µM and the IC50 (human 5-HT3A receptors; inhibition of 5-HT EC50 response (1.7 μM 5-HT), oocytes, read-out: IC50) was greater than 1000 µM. It also gave an inhibition at 1000 µM (human 5-HT3A receptors; [2]) of no more than 50%, an IC50 (human 5-HT3AB receptors; [1]) greater than 1000 µM and an IC50 (human 5-HT3AB receptors; inhibition of 5-HT EC50 response (28 μM 5-HT), oocytes, read-out: IC50) greater than 1000 µM. It also gave an inhibition at 1000 µM (human 5-HT3AB receptors; [2]) of no more than 50%.

For CC(C)(O)[C@@H]1[C@H]2OC(=O)[C@@H]1[C@]1(O)C[C@H]3O[C@]34C(=O)O[C@H]2[C@]14C [PTN, picrotin], the IC50 (human 5-HT3A receptors) was 470 µM, the “ratio of current amplitudes at +40 mV relative to −40 mV (voltage-dependence)” value (human 5-HT3A receptors; compared with absence of antagonist, Fig. 2E) was “unaltered” and the Hill slope (human 5-HT3A receptors; concentration-inhibition curve, 1.7 μM 5-HT) was 1.33 ± 0.15. It also gave an IC50 (human 5-HT3AB receptors; IC50, inhibition of 5-HT EC50 response (28 μM 5-HT), oocytes) of 2900 µM, a Hill slope (human 5-HT3AB receptors; concentration-inhibition curve, 28 μM 5-HT) of 0.99 ± 0.07 and an IC50 (human 5-HT3AB receptors; pIC50, inhibition of 5-HT EC50 response (28 μM 5-HT), oocytes) of 2950 µM. For the same compound, the IC50 (glycine α1 receptors) was roughly 5 µM and the IC50 (glycine α1β receptors) was roughly 30 µM.
